# Assay results as given in ChEMBL document CHEMBL3885881, “DrugMatrix”.
# Organism: Rattus norvegicus
# Test: DrugMatrix - Regimen: Daily Repeat
# Type: toxicity, organism-based, Sprague-Dawley
# Parameters: regimen Daily Repeat, gender Male, age 6-8 weeks
# Settings: in vivo, sc, route subcutaneous, […]; for ABSOLUTE BASOPHIL / ABSOLUTE EOSINOPHIL / ABSOLUTE LYMPHOCYTE / ABSOLUTE MONOCYTE / ABSOLUTE SEGMENTED NEUTROPHIL / BASOPHIL / EOSINOPHIL / ERYTHROCYTE COUNT / HEMATOCRIT / HEMOGLOBIN / LEUKOCYTE COUNT / LYMPHOCYTE / MEAN CORPUSCULAR HEMOGLOBIN / MEAN CORPUSCULAR HEMOGLOBIN CONCENTRATION / MEAN CORPUSCULAR VOLUME / MONOCYTE / NEUTROPHIL / NUCLEATED RED BLOOD CELLS / PLATELET COUNT: tissue Blood; for ALANINE AMINOTRANSFERASE / ALBUMIN / ALKALINE PHOSPHATASE / ASPARTATE AMINOTRANSFERASE / BLOOD UREA NITROGEN / CARBON DIOXIDE / CHLORIDE / CHOLESTEROL / CREATINE PHOSPHOKINASE / CREATININE / GLUCOSE / LACTATE DEHYDROGENASE / LIPASE / PHOSPHORUS / POTASSIUM / SODIUM / TOTAL BILIRUBIN / TOTAL PROTEIN / URIC ACID: tissue Plasma
# [1] = 68 mg/kg, 72 h, dose level High, time 3 day
# [2] = 68 mg/kg, 120 h, dose level High, time 5 day
# [3] = 72 h, dose 6.8 mg/Kg, dose level Low, time 3 day
# [4] = 120 h, dose 6.8 mg/Kg, dose level Low, time 5 day
structure (smiles),measurement,setting,value
Oc1cccc2cccnc12 [OXYQUINOLINE],ABSOLUTE BASOPHIL,[1],0 CELLS/uL
same,ABSOLUTE EOSINOPHIL,[1],246.33 CELLS/uL
same,ABSOLUTE LYMPHOCYTE,[1],13064.33 CELLS/uL
same,ABSOLUTE MONOCYTE,[1],405.33 CELLS/uL
same,ABSOLUTE SEGMENTED NEUTROPHIL,[1],1850.67 CELLS/uL
same,BASOPHIL,[1],0%
same,EOSINOPHIL,[1],1.67%
same,ERYTHROCYTE COUNT,[1],5.38 x10E6/uL
same,HEMATOCRIT,[1],34.33%
same,HEMOGLOBIN,[1],12.8 G/DL
same,LEUKOCYTE COUNT,[1],15.57 x10E3/uL
same,LYMPHOCYTE,[1],83.67%
same,MEAN CORPUSCULAR HEMOGLOBIN,[1],23.83 pg
same,MEAN CORPUSCULAR HEMOGLOBIN CONCENTRATION,[1],37.33 G/DL
same,MEAN CORPUSCULAR VOLUME,[1],63.87 fL
same,MONOCYTE,[1],2.67%
same,NEUTROPHIL,[1],12%
same,NUCLEATED RED BLOOD CELLS,[1],0 /100WBC
same,PLATELET COUNT,[1],1290 x10E3/uL
same,ALANINE AMINOTRANSFERASE,[1],49.33 u/L
same,ALBUMIN,[1],3.73 G/DL
same,ALKALINE PHOSPHATASE,[1],444 u/L
same,ASPARTATE AMINOTRANSFERASE,[1],72 u/L
same,BLOOD UREA NITROGEN,[1],18.67 mg/dL
same,CARBON DIOXIDE,[1],26 mmol/L
same,CHLORIDE,[1],105 MEQ/L
same,CHOLESTEROL,[1],65.33 mg/dL
same,CREATINE PHOSPHOKINASE,[1],160.33 u/L
same,CREATININE,[1],0.13 mg/dL
same,GLUCOSE,[1],169 mg/dL
same,LACTATE DEHYDROGENASE,[1],87.67 u/L
same,LIPASE,[1],8.67 u/L
same,PHOSPHORUS,[1],12.4 mg/dL
same,POTASSIUM,[1],6.22 MEQ/L
same,SODIUM,[1],146.43 MEQ/L
same,TOTAL BILIRUBIN,[1],0.2 mg/dL
same,TOTAL PROTEIN,[1],5.63 G/DL
same,URIC ACID,[1],1.07 mg/dL
same,ABSOLUTE BASOPHIL,[2],0 CELLS/uL
same,ABSOLUTE EOSINOPHIL,[2],367.33 CELLS/uL
same,ABSOLUTE LYMPHOCYTE,[2],11402.67 CELLS/uL
same,ABSOLUTE MONOCYTE,[2],397.67 CELLS/uL
same,ABSOLUTE SEGMENTED NEUTROPHIL,[2],1465.67 CELLS/uL
same,BASOPHIL,[2],0%
same,EOSINOPHIL,[2],2.67%
same,ERYTHROCYTE COUNT,[2],5.88 x10E6/uL
same,HEMATOCRIT,[2],36.73%
same,HEMOGLOBIN,[2],13.63 G/DL
same,LEUKOCYTE COUNT,[2],13.63 x10E3/uL
same,LYMPHOCYTE,[2],83.33%
same,MEAN CORPUSCULAR HEMOGLOBIN,[2],23.2 pg
same,MEAN CORPUSCULAR HEMOGLOBIN CONCENTRATION,[2],37.13 G/DL
same,MEAN CORPUSCULAR VOLUME,[2],62.53 fL
same,MONOCYTE,[2],3%
same,NEUTROPHIL,[2],11%
same,NUCLEATED RED BLOOD CELLS,[2],0 /100WBC
same,PLATELET COUNT,[2],1567 x10E3/uL
same,ALANINE AMINOTRANSFERASE,[2],37.67 u/L
same,ALBUMIN,[2],3.87 G/DL
same,ALKALINE PHOSPHATASE,[2],326.67 u/L
same,ASPARTATE AMINOTRANSFERASE,[2],67 u/L
same,BLOOD UREA NITROGEN,[2],16.67 mg/dL
same,CARBON DIOXIDE,[2],25.33 mmol/L
same,CHLORIDE,[2],105 MEQ/L
same,CHOLESTEROL,[2],75.33 mg/dL
same,CREATINE PHOSPHOKINASE,[2],175 u/L
same,CREATININE,[2],0.16 mg/dL
same,GLUCOSE,[2],162 mg/dL
same,LACTATE DEHYDROGENASE,[2],86.67 u/L
same,LIPASE,[2],8 u/L
same,PHOSPHORUS,[2],13.33 mg/dL
same,POTASSIUM,[2],6.17 MEQ/L
same,SODIUM,[2],147.4 MEQ/L
same,TOTAL BILIRUBIN,[2],0.17 mg/dL
same,TOTAL PROTEIN,[2],6.03 G/DL
same,URIC ACID,[2],2.03 mg/dL
same,ABSOLUTE BASOPHIL,[3],0 CELLS/uL
same,ABSOLUTE EOSINOPHIL,[3],0 CELLS/uL
same,ABSOLUTE LYMPHOCYTE,[3],14772 CELLS/uL
same,ABSOLUTE MONOCYTE,[3],208 CELLS/uL
same,ABSOLUTE SEGMENTED NEUTROPHIL,[3],1086.67 CELLS/uL
same,BASOPHIL,[3],0%
same,EOSINOPHIL,[3],0%
same,ERYTHROCYTE COUNT,[3],5.93 x10E6/uL
same,HEMATOCRIT,[3],37.03%
same,HEMOGLOBIN,[3],13.73 G/DL
same,LEUKOCYTE COUNT,[3],16.07 x10E3/uL
same,LYMPHOCYTE,[3],91.33%
same,MEAN CORPUSCULAR HEMOGLOBIN,[3],23.23 pg
same,MEAN CORPUSCULAR HEMOGLOBIN CONCENTRATION,[3],37.07 G/DL
same,MEAN CORPUSCULAR VOLUME,[3],62.63 fL
same,MONOCYTE,[3],1.33%
same,NEUTROPHIL,[3],7.33%
same,NUCLEATED RED BLOOD CELLS,[3],0.33 /100WBC
same,PLATELET COUNT,[3],1308.67 x10E3/uL
same,ALANINE AMINOTRANSFERASE,[3],45.67 u/L
same,ALBUMIN,[3],4.3 G/DL
same,ALKALINE PHOSPHATASE,[3],363.67 u/L
same,ASPARTATE AMINOTRANSFERASE,[3],73.33 u/L
same,BLOOD UREA NITROGEN,[3],15 mg/dL
same,CARBON DIOXIDE,[3],24.33 mmol/L
same,CHLORIDE,[3],103 MEQ/L
same,CHOLESTEROL,[3],68.67 mg/dL
same,CREATINE PHOSPHOKINASE,[3],130.33 u/L
same,CREATININE,[3],0.2 mg/dL
same,GLUCOSE,[3],142.67 mg/dL
same,LACTATE DEHYDROGENASE,[3],83.33 u/L
same,LIPASE,[3],8.67 u/L
same,PHOSPHORUS,[3],11.27 mg/dL
same,POTASSIUM,[3],6.77 MEQ/L
same,SODIUM,[3],146.07 MEQ/L
same,TOTAL BILIRUBIN,[3],0.2 mg/dL
same,TOTAL PROTEIN,[3],5.57 G/DL
same,URIC ACID,[3],1.63 mg/dL
same,ABSOLUTE BASOPHIL,[4],0 CELLS/uL
same,ABSOLUTE EOSINOPHIL,[4],182.67 CELLS/uL
same,ABSOLUTE LYMPHOCYTE,[4],12749.33 CELLS/uL
same,ABSOLUTE MONOCYTE,[4],601.33 CELLS/uL
same,ABSOLUTE SEGMENTED NEUTROPHIL,[4],1500 CELLS/uL
same,BASOPHIL,[4],0%
same,EOSINOPHIL,[4],1.33%
same,ERYTHROCYTE COUNT,[4],6.16 x10E6/uL
same,HEMATOCRIT,[4],37.9%
same,HEMOGLOBIN,[4],13.87 G/DL
same,LEUKOCYTE COUNT,[4],15.03 x10E3/uL
same,LYMPHOCYTE,[4],84.67%
same,MEAN CORPUSCULAR HEMOGLOBIN,[4],22.53 pg
same,MEAN CORPUSCULAR HEMOGLOBIN CONCENTRATION,[4],36.6 G/DL
same,MEAN CORPUSCULAR VOLUME,[4],61.5 fL
same,MONOCYTE,[4],4%
same,NEUTROPHIL,[4],10%
same,NUCLEATED RED BLOOD CELLS,[4],0 /100WBC
same,PLATELET COUNT,[4],1278.67 x10E3/uL
same,ALANINE AMINOTRANSFERASE,[4],45 u/L
same,ALBUMIN,[4],4.2 G/DL
same,ALKALINE PHOSPHATASE,[4],341 u/L
same,ASPARTATE AMINOTRANSFERASE,[4],77 u/L
same,BLOOD UREA NITROGEN,[4],19 mg/dL
same,CARBON DIOXIDE,[4],24.33 mmol/L
same,CHLORIDE,[4],107 MEQ/L
same,CHOLESTEROL,[4],75.33 mg/dL
same,CREATINE PHOSPHOKINASE,[4],227.33 u/L
same,CREATININE,[4],0.17 mg/dL
same,GLUCOSE,[4],154.33 mg/dL
same,LACTATE DEHYDROGENASE,[4],324 u/L
same,LIPASE,[4],9 u/L
same,PHOSPHORUS,[4],12.23 mg/dL
same,POTASSIUM,[4],6.39 MEQ/L
same,SODIUM,[4],146.97 MEQ/L
same,TOTAL BILIRUBIN,[4],0.13 mg/dL
same,TOTAL PROTEIN,[4],6.37 G/DL
same,URIC ACID,[4],1.5 mg/dL
